One data set deals with RSK4 (Homo sapiens (Human), UniProt Q9UK32). The experiment in a line: Radioisotope kinase assay (SignalChem), RSK4. Format: biochemical. Here is the method:
(§1) Radioisotope assays (SignalChem) were performed for the evaluation of the kinase target profiling and all assays were performed in a designated radioactive working area. The kinase targets were RSK1, RSK2, RSK3, RSK4 and MK2. The kinase assays (in duplicate) were performed at 30° C. for 15 minutes in a final volume of 25 μL according to the following assay reaction recipe: • Component 1: 5 μL of diluted active kinase target (100 ng per reaction) • Component 2: 5 μL of peptide substrate (0.5 μg per reaction) (for RSK1, RSK2, RSK3 and RSK4, RSK S6K substrate was used; for MK2, HSP27tide was used) • Component 3: 5 μL of kinase assay buffer • Component 4: 5 μL of compound described herein (various concentrations: 0, 0.1, 1, 10, 100 or 1000 nM or 1, 3, 10, 30, 100, 300 nM) • Component 5: 5 μL of ^33P-ATP (5 μM stock solution, 0.8 μCi; […])
(§2) The assay was initiated by the addition of ^33P-ATP and the reaction mixture incubated at 30° C. for 15 minutes. […] The radioactivity on the P81 plate was counted in the presence of scintillation fluid in a Trilux scintillation counter.
(§3) Blank controls were set up for each target kinase which included all the assay components except the addition of the appropriate substrate (which was replaced with equal volume of assay dilution buffer). The corrected activity for each target kinase was determined by removing the blank control value.

For data set [1], the system named is CD274, the gene that encodes PD-L1. Description: Immuno-oncology: CD274 expression in MDA-MB-231 cells. Format: cell-based, Human. As to conditions: Compound 16 2 or 4 uM, Compound 18 1, 2 or 4 uM. The source says: (§4) A key feature of cancer is low immunogenicity. This can occur by several mechanisms that allow the cells to escape immune recognition. […] HLA-DRA is a member of MHC-II genes and CIITA is the master regulator of MHC II transcription. Thus it was surprising that CIITA, which would be expected to regulate MHC II gene expression, was not altered by RSK inhibition. […] HLA-DRA is important for immune recognition while PD-L1 is involved in immune checkpoints.

Another data set has as its target RSK3 (Homo sapiens (Human), UniProt Q15349). Description: Radioisotope kinase assay (SignalChem), RSK3. The format is biochemical. As to the method:
as §1, §2, §3

Data set [2] can be described thus: Solubility assessment at 20 mg/ml. Format: physicochemical. As to conditions: for 20 mg/ml Solubility: dissolved in DMSO, diluted in DMEM. As to the method:
Solubility is an important property for therapeutic drug candidates. Poor solubility can lead to low bioavailability resulting in suboptimal drug delivery. It can also prevent the evaluation of test agents in animals because the concentration(s) needed to achieve the desired effect cannot be achieved to poor solubility. For solubility assessments, small molecules targeting RSK were compared. For these assessments, 100 mM solutions of the compounds dissolved in DMSO were diluted in DMEM growth media (Life Technologies) supplemented with fetal bovine serum (FBS, Life Technologies) and 100 units/ml penicillin and 100 units/ml streptomycin (Life Technologies) to make 20 mg/ml solutions. Once diluted, the solutions were vortexed and examined for the formation of precipitates. […] For Compound 26, a 100 mM solution of the compound dissolved in DMSO was diluted in phosphate buffered saline (Life Technologies) to make a 20 mg/ml solution. The stock of […] was chosen because this is the upper end of what would be required to dose mice for a range of studies including MTD, PK, PD and efficacy. The pH of this solution was determined to be 2, as previously described. […] At high concentrations some RSK inhibitors were highly soluble while others were not. Compound 0 is (R)—N-(1-benzyl-1H-pyrazol-4-yl)-9-methyl-6-oxo-6,7,8,9-tetrahydropyrido[3′,2′:4,5]pyrrolo[1,2-a]pyrazine-2-carboxamide. Compound 0 was not soluble, whereas Compounds 18, 20, 21, 25 and 26 were soluble under the same conditions (Table 5).

The subject of data set [3] is phosphorylated Y-box binding protein-1 (YB-1) at serine 102 (P—YB-1S102). Description: Immunoblotting of phosphorylated YB-1 in MDA-MB-231 cells. Background: A western blot detects proteins with antibodies after separation by electrophoresis.
Description: Following desired experimental conditions, breast cancer cell lines grown and treated in 6 well plates or 100 mm culture dishes (Grenier Bio-One) were placed on ice and the supernatant from each well was removed and the cells were washed in cold PBS. Following removal of PBS, cells were exposed to radioimmunoprecipitation assay (RIPA) buffer (50 mM Tris-HCl (pH 8), 150 mM NaCl, 1% NP-40, 0.5% sodium deoxycholate, 0.1% SDS; Fisher Scientific) supplemented with 1% phosphatase inhibitor (Fisher Scientific) and 1% protease inhibitor (Fisher Scientific) for 10 minutes. Samples were transferred to eppendorf tubes, vortexed and then centrifuged at 14 000 rpm for 10 minutes. Supernatants were collected as whole cell lysates. For mouse tumour tissues, each sample was place in a 35 mm culture dish with complete RIPA lysis buffer. The samples were diced in the buffer on ice with a sterile scalpel (VWR) and the buffer and tissue were transferred to an eppendorf tube. The samples were left on ice for 10 minutes with periodic vortexing every 2 to 3 minutes. The samples were then transferred to a Qiashredder (Qiagen) and centrifuged at 14 000 rpm for 2 minutes. The flow through was transferred to a new eppendorf tube and the samples were centrifuged again at 14 000 rpm for 5 minutes. Supernatants were collected as whole cell lysates.
For the majority of experiments in this study, 30 μg of protein per well was loaded. Samples were then resolved on SDS-PAGE (polyacrylamide gel electrophoresis) using various percentages of acrylamide gels (8%-12%), depending on the proteins of interest. […] For certain immunoblots, bands of proteins of interest were scanned and band intensity ratios were determined by densitometric analysis (ImageJ). […] To assess whether cells are actively undergoing cell death, the activity of poly ADP ribose polymerase (PARP) (1:1000 CST) was also measured using the immunoblotting method.
Data set [4] relates to CD274, the gene that encodes PD-L1. Description: Immuno-oncology: CD274 expression in JIMT-1 cells. As to conditions: 1-20 uM. Format: cell-based, Human.
Description: as §4

Another data set addresses RSK1 (Homo sapiens (Human), UniProt Q15418). The experiment in a line: Radioisotope kinase assay (SignalChem), RSK1. Format: biochemical. As to the method:
as §1, §2, §3

The target of another data set is RSK2 (Homo sapiens (Human), UniProt P51812). The experiment in a line: Radioisotope kinase assay (SignalChem), RSK2. The format is biochemical. Here is the method: The assay conditions for the RSK2 kinase target were optimized to yield acceptable enzymatic activity. In addition, the assays were optimized to give high signal-to-noise ratio.
Chain of RSK2 (P51812 whole entry): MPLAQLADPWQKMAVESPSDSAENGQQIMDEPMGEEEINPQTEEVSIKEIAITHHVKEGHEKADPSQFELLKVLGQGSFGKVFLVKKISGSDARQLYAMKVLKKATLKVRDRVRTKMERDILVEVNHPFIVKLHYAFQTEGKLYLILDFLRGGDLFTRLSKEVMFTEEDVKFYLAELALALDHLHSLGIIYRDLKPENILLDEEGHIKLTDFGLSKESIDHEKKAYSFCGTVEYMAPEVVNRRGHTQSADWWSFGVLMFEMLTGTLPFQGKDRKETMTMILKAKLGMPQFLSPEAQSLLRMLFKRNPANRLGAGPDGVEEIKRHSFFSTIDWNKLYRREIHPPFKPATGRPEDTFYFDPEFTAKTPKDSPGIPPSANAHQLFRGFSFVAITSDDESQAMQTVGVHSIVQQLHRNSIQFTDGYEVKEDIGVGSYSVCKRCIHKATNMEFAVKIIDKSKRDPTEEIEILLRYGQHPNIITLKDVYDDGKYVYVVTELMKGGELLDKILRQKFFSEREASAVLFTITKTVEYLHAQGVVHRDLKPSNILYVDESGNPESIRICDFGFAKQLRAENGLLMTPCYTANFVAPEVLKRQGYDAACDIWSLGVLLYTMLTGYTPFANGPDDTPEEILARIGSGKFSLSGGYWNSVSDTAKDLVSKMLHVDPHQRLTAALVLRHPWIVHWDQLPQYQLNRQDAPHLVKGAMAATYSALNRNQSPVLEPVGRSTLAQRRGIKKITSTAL
Radioisotope assays (SignalChem) were performed for the evaluation of the kinase target profiling and all assays were performed in a designated radioactive working area. The kinase targets were RSK1, RSK2, RSK3, RSK4 and MK2.
The assay was initiated by the addition of ^33P-ATP and the reaction mixture incubated at 30° C. for 15 minutes. After the incubation period, the assay was terminated by spotting 10 μL of the reaction mixture onto Multiscreen phosphocellulose P81 plate. The Multiscreen phosphocellulose P81 plate was washed 3 times for approximately 15 minutes each in a 1% phosphoric acid solution. The radioactivity on the P81 plate was counted in the presence of scintillation fluid in a Trilux scintillation counter.
as §3

The next data set has as its system HLA-DRA mRNA. Description: Immuno-oncology: HLA-DRA mRNA expression. The format is cell-based, Human. To be noted: MDA-MB-231 and JIMT-1 cells; Compound 16 2 or 4 uM, Compound 18 1, 2, or 4 uM.
Description: as §4

The next data set has as its system CIITA mRNA. Description: Immuno-oncology: CIITA mRNA expression. Format: cell-based, Human. To be noted: MDA-MB-231 and JIMT-1 cells; Compound 16 2 or 4 uM, Compound 18 1, 2, or 4 uM.
Description: as §4

Data set [5] concerns All cell lines of Tables 6A and 6B. Description: Monolayer growth inhibition, Alamar blue, range over all cell lines. Format: cell-based. As to conditions: 120 h, read-out: IC50 Values - Alamar Blue (5 Days), Range. Background: Resazurin is reduced to fluorescent resorufin, in cell work by metabolically active cells.
Description: 1×10^3 cells per well were seeded for a final volume of 200 μl per well and plates were incubated for 5 days at 37° C. in a humidified incubator with 5% CO2. Following the incubation period, cell survival was quantified by Alamar blue assay (Life Technologies). Briefly, media from each well was replaced with 100 μl of phosphate buffer saline (PBS, Life Technologies) and cells were incubated with 5% Alamar blue, which incorporates a propriety redox indicator that changes colour in response to metabolic activity, for up to 2 hours. During this period of incubation, the absorbance at 570 nm and 600 nm was measured at various time points, depending on the cell line or sample. Percent survival was calculated by comparing the absorbance ratio of the test well to the control well multiplied by 100%, as indicated in the following formula:
Data set [6] relates to All cell lines of Tables 7A and 7B. Description: Monolayer growth inhibition, crystal violet, range over all cell lines. The format is cell-based. To be noted: 120 h, read-out: IC50 Values - Crystal Violet (5 Days), Range.
A short description of data set [7]: Colony forming unit hematopoietic stem cell assay. The format is cell-based, human. As to conditions: human, CD34+ cells from human cord blood or peripheral blood; at 3.8 uM; read-out: cells viable in the HSC assay. Here is the method:
The hematopoietic colony forming cell assay was conducted based on a protocol outlined by StemCell Technologies. […] Following the addition of CD34^+ cells isolated from human cord blood or peripheral blood (StemCell Technologies) at a final concentration of 5×10^2 cells per dish, the tubes were vortexed and allowed to stand for 5 minutes at room temperature. Next, the MethoCult mixtures were dispensed into 35 mm dishes (Corning Incorporated) through blunt end needles (StemCell Technologies) and 5 ml syringes (BD Biosciences) at a volume of 1.1 ml per dish. The medium was evenly distributed across the surface of each dish by gentle tilting and rotation. The dishes were then placed in a 100 mm culture dish (Grenier Bio-One) containing additional 35 mm dishes with sterile water to maintain humidity. The culture dish was then placed at 37° C. in a humidified incubator containing 5% CO2 for 13 days. The number of myeloid and erythroid derived colonies in both the treated and control dishes were counted and compared.

Chain of RSK1 (Q15418 whole entry): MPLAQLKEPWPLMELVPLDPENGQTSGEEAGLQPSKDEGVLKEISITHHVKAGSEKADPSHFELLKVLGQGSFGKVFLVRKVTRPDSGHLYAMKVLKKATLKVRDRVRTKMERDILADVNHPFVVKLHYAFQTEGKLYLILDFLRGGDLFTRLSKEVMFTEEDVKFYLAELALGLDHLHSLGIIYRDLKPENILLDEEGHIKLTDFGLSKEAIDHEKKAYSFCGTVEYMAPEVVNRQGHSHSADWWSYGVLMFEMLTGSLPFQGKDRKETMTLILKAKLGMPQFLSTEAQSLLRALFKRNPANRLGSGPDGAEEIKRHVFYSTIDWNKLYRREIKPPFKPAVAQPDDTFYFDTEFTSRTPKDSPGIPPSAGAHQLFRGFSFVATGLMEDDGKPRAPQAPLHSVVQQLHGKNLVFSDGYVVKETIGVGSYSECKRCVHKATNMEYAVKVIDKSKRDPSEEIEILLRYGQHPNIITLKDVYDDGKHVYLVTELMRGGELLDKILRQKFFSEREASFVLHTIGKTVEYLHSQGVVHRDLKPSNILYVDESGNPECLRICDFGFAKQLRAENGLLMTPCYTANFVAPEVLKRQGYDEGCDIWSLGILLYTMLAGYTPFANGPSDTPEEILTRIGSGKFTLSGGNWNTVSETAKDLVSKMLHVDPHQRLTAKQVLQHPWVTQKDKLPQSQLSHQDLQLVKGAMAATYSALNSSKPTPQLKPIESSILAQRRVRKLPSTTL
Chain of RSK4 (Q9UK32 whole entry): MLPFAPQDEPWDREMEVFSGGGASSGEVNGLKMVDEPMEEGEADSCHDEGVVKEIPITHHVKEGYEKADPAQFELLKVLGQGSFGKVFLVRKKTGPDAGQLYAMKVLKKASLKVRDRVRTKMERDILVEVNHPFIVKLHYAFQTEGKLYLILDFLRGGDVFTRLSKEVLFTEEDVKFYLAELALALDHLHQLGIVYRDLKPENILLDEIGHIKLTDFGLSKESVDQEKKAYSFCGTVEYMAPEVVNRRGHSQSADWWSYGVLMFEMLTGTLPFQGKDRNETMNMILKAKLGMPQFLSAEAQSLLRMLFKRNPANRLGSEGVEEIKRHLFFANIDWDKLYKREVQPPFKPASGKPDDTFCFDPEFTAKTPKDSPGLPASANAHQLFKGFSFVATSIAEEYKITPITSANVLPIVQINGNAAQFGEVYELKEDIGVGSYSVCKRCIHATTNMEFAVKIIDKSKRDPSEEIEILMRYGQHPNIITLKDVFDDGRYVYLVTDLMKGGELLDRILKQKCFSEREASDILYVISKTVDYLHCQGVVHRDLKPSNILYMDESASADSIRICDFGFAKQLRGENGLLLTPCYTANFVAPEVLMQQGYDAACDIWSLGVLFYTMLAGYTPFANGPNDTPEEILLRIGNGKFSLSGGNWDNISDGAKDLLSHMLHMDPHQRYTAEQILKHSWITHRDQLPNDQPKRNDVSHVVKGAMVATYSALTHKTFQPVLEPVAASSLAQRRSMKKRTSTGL
Chain of RSK3 (Q15349 whole entry): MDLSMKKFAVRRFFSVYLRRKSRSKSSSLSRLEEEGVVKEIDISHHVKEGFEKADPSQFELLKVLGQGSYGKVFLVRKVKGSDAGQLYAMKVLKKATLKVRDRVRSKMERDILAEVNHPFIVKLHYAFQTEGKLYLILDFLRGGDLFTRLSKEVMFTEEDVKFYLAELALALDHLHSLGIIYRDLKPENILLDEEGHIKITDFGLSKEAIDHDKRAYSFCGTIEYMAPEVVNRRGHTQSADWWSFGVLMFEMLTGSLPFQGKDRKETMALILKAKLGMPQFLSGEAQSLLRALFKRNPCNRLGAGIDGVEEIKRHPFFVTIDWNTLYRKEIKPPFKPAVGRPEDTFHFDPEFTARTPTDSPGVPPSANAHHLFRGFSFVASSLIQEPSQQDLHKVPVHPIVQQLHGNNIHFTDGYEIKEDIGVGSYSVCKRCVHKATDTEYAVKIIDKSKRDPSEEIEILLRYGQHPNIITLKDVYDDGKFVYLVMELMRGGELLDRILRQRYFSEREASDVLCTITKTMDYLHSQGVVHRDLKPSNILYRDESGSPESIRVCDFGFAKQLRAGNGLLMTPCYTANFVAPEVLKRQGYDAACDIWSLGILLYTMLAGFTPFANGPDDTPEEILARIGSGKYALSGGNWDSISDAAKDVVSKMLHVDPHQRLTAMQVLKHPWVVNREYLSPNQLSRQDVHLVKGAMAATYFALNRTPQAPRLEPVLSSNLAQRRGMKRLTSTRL

Usually IC50 stands for the concentration that gives 50% inhibition. `C[C@@H]1CNC(=O)c2cc3ccc(C(=O)Nc4cnn(Cc5ccc(N)cc5)c4)nc3n21` [Compound 18, (R)—N-(1-(4-aminobenzyl)-1H-pyrazol-4-yl)-9-methyl-6-oxo-6,7,8,9-tetrahydropyrido[3′,2′:4,5]pyrrolo[1,2-a]pyrazine-2-carboxamide]: the half-maximal inhibitory concentration (IC50) against RSK4 was determined as 0.3 nM; on RSK3, 1.7 nM; against RSK1, 2 nM; against RSK2 it was 12 nM. Moreover, the “levels of CD274” value in data set [1] is listed as “reduced”. Further, the pH in data set [2] (20 mg/ml solution, DMSO diluted in DMEM) worked out at 9. Moreover, the “20 mg/ml Solubility” value in data set [2] is “Soluble”. For the same compound, the “loss of P—YB-1” value in data set [3] (MDA-MB-231, 0.01, 0.1, 1, or 10 uM, 24 hrs) was “dose dependent loss”; in [3] (MDA-MB-231, 0.01-1 uM, 96 hrs), “dose dependent loss”. Besides, the CD274 result in data set [4] is “inhibited”. In addition, the “levels of HLA-DRA mRNA” value in the data set with HLA-DRA mRNA was “elevated”. Further, the “mRNA expression of CIITA” value with CIITA mRNA was “little effect”.
`C[C@@H]1CNC(=O)c2cc3ccc(C(=O)Nc4cnn(Cc5ccc(F)cc5F)c4)nc3n21` [Compound 23, (R)—N-(1-(2,4-difluorobenzyl)-1H-pyrazol-4-yl)-9-methyl-6-oxo-6,7,8,9-tetrahydropyrido[3′,2′:4,5]pyrrolo[1,2-a]pyrazine-2-carboxamide]: the IC50 in [5] lay in the range of 1.1 to 19.8 µM; in data set [6], 1.1 to 15 µM. Also, the “20 mg/ml Solubility” value in data set [2] is listed as “Precipitate”.
Regarding `C[C@@H]1CNC(=O)c2cc3ccc(NC(=O)c4cnn(Cc5ccccc5)c4)nc3n21` [Compound 15, (R)-1-benzyl-N-(9-methyl-6-oxo-6,7,8,9-tetrahydropyrido[3′,2′:4,5]pyrrolo[1,2-a]pyrazin-2-yl)-1H-pyrazole-4-carboxamide], the IC50 against RSK4 came out at 8 nM; on RSK3, 6 nM; against RSK1, 23.6 nM; at RSK2, 94 nM. Besides, in [7], the viability at 13 days, […] turned out to be 100%.

The values are drawn from patent US9771366B2, “Substituted tetrahydropyrido[3′,2′:4,5]pyrrolo[1,2-a]pyrazine-2-carboxamides as RSK inhibitors” (Phoenix Molecular Designs, priority 2016, dated 2017).
